# Experiment: Effect of phosphate and borate buffers on chemical stability (% remaining, impurity profile), osmolality, pH and appearance of 25HC3S 30 mg/mL in 250 mg/mL HPBCD at 80°C and 60°C
# Type: physicochemical
# Set-up: First Order Rate Constant: unit not given beside the values
# Protocol: A total of six 25HC3S formulations at 30 mg/mL in 250 mg/mL of 2-hydroxypropyl beta cyclodextrin (HPBCD) containing 10, 20, 50 and 100 mM phosphate buffers at pH 7.5 to 8.1 and 10 and 50 mM borate buffers at pH 9.4 were prepared for the stability study. The chemical stability (measured as % remaining of 25HC3S) and physical stability (osmolality, pH and appearance) of the formulations were monitored under accelerated conditions for up to 7 days at 80° C. and up to 29 days at 60° C.
# Two stock solutions of phosphate buffer at 100 and 200 mM at pH 7.4 and 7.3, respectively and one borate buffer at 100 mM at pH 9.3 were prepared (Tables 22A and 22B) and used for 250 mg/mL HPBCD vehicles preparation (Table 23).
# Approximately 1200 mg each of 25HC3S was weighed into 40 mL volumetric flasks and diluted to volume with the six HPBCD vehicles containing 10-100 mM phosphate buffers or 10 and 50 mM borate buffers, respectively (Table 24). The final concentration of 25HC3S was 30 mg/mL (wt/volume, without adjusting for API purity). Aliquots of 2 mL of each formulation were filled into 2 mL glass vials, stoppered and sealed for stability sample set-up at 60° C. and 80° C. to study the effect of phosphate buffer (pH 7.5-8.1) and borate buffer (pH 9.4) at various buffer concentrations on the stability of the HPBCD formulations (Table 26).
# A 0.5 mL of sample solution was transferred to a 25 mL volumetric flask and QS'ed with methanol/water=95/5 for 25HC3S concentration determination by HPLC. The % remaining of 25HC3S was calculated as follows: […]
# [1] = 250 mg/mL HPBCD, 10 mM borate, 80°C, day 0
# [2] = 250 mg/mL HPBCD, 10 mM borate, 80°C, day 1
# [3] = 250 mg/mL HPBCD, 10 mM borate, 80°C, day 2
# [4] = 250 mg/mL HPBCD, 10 mM borate, 80°C, day 3
# [5] = 250 mg/mL HPBCD, 10 mM borate, 80°C, day 7
# [6] = 250 mg/mL HPBCD, 10 mM borate, day 0
# [7] = 250 mg/mL HPBCD, 10 mM phosphate, 80°C, day 0
# [8] = 250 mg/mL HPBCD, 10 mM phosphate, 80°C, day 1
# [9] = 250 mg/mL HPBCD, 10 mM phosphate, 80°C, day 2
# [10] = 250 mg/mL HPBCD, 10 mM phosphate, 80°C, day 3
# [11] = 250 mg/mL HPBCD, 10 mM phosphate, 80°C, day 7
# [12] = 250 mg/mL HPBCD, 10 mM phosphate, day 0
# [13] = 250 mg/mL HPBCD, 20 mM phosphate, 80°C, day 0
# [14] = 250 mg/mL HPBCD, 20 mM phosphate, 80°C, day 1
# [15] = 250 mg/mL HPBCD, 20 mM phosphate, 80°C, day 2
# [16] = 250 mg/mL HPBCD, 20 mM phosphate, 80°C, day 3
# [17] = 250 mg/mL HPBCD, 20 mM phosphate, 80°C, day 7
# [18] = 250 mg/mL HPBCD, 20 mM phosphate, day 0
# [19] = 250 mg/mL HPBCD, 50 mM borate, 80°C, day 0
# [20] = 250 mg/mL HPBCD, 50 mM borate, 80°C, day 1
# [21] = 250 mg/mL HPBCD, 50 mM borate, 80°C, day 2
# [22] = 250 mg/mL HPBCD, 50 mM borate, 80°C, day 3
# [23] = 250 mg/mL HPBCD, 50 mM borate, 80°C, day 7
# [24] = 250 mg/mL HPBCD, 50 mM borate, day 0
# [25] = 250 mg/mL HPBCD, 50 mM phosphate, 80°C, day 0
# [26] = 250 mg/mL HPBCD, 50 mM phosphate, 80°C, day 1
# [27] = 250 mg/mL HPBCD, 50 mM phosphate, 80°C, day 2
# [28] = 250 mg/mL HPBCD, 50 mM phosphate, 80°C, day 3
# [29] = 250 mg/mL HPBCD, 50 mM phosphate, 80°C, day 7
# [30] = 250 mg/mL HPBCD, 50 mM phosphate, day 0
# [31] = 250 mg/mL HPBCD, 100 mM phosphate, 80°C, day 0
# [32] = 250 mg/mL HPBCD, 100 mM phosphate, 80°C, day 1
# [33] = 250 mg/mL HPBCD, 100 mM phosphate, 80°C, day 2
# [34] = 250 mg/mL HPBCD, 100 mM phosphate, 80°C, day 3
# [35] = 250 mg/mL HPBCD, 100 mM phosphate, 80°C, day 7
# [36] = 250 mg/mL HPBCD, 100 mM phosphate, day 0
structure (smiles),measurement,setting,value
"C[C@H](CCCC(C)(C)O)[C@H]1CC[C@H]2[C@@H]3CC=C4C[C@@H](OS(=O)(=O)[O-])CC[C@]4(C)[C@H]3CC[C@]12C.[Na+] [25HC3S, 5-cholesten-3, 25-diol, 3-sulfate]",Calculated t90,"10 mM borate, 80°C",2.0 days
same,First Order Rate Constant,"10 mM borate, 80°C",−0.0463
same,Intercept (first order fit of % remaining),"10 mM borate, 80°C",98.9
same,Calculated t90,"10 mM phosphate, 80°C",2.3 days
same,First Order Rate Constant,"10 mM phosphate, 80°C",−0.0462
same,Intercept (first order fit of % remaining),"10 mM phosphate, 80°C",99.9
same,Calculated t90,"20 mM phosphate, 80°C",2.2 days
same,First Order Rate Constant,"20 mM phosphate, 80°C",−0.0437
same,Intercept (first order fit of % remaining),"20 mM phosphate, 80°C",99.2
same,Calculated t90,"50 mM borate, 80°C",1.9 days
same,First Order Rate Constant,"50 mM borate, 80°C",−0.0484
same,Intercept (first order fit of % remaining),"50 mM borate, 80°C",98.8
same,Calculated t90,"50 mM phosphate, 80°C",2.2 days
same,First Order Rate Constant,"50 mM phosphate, 80°C",−0.0451
same,Intercept (first order fit of % remaining),"50 mM phosphate, 80°C",99.5
same,Calculated t90,"100 mM phosphate, 80°C",2.2 days
same,First Order Rate Constant,"100 mM phosphate, 80°C",−0.0430
same,Intercept (first order fit of % remaining),"100 mM phosphate, 80°C",99
same,pH,"250 mg/mL HPBCD, 10 mM borate, 60°C, 29 days",8.90
same,25HC3S concentration,[1],28.58 mg/mL
same,% Remaining of 25HC3S,[1],100.0%
same,25HC3S concentration,[2],26.90 mg/mL
same,% Remaining of 25HC3S,[2],94.1%
same,Osmolality,[2],318 mmol/kg
same,pH,[2],9.12
same,25HC3S concentration,[3],25.63 mg/mL
same,% Remaining of 25HC3S,[3],89.7%
same,Osmolality,[3],323 mmol/kg
same,pH,[3],8.92
same,25HC3S concentration,[4],24.40 mg/mL
same,% Remaining of 25HC3S,[4],85.4%
same,Osmolality,[4],328 mmol/kg
same,pH,[4],8.60
same,25HC3S concentration,[5],20.55 mg/mL
same,% Remaining of 25HC3S,[5],71.9%
same,Appearance,[5],light brown
same,Osmolality,[5],352 mmol/kg
same,pH,[5],7.06
same,Osmolality,[6],316 mmol/kg
same,pH,[6],9.36
same,pH,"250 mg/mL HPBCD, 10 mM phosphate, 60°C, 29 days",7.04
same,25HC3S concentration,[7],28.45 mg/mL
same,% Remaining of 25HC3S,[7],100.0%
same,25HC3S concentration,[8],27.03 mg/mL
same,% Remaining of 25HC3S,[8],95.0%
same,Osmolality,[8],291 mmol/kg
same,pH,[8],7.28
same,25HC3S concentration,[9],26.00 mg/mL
same,% Remaining of 25HC3S,[9],91.4%
same,Osmolality,[9],286 mmol/kg
same,pH,[9],6.82
same,25HC3S concentration,[10],24.70 mg/mL
same,% Remaining of 25HC3S,[10],86.8%
same,Osmolality,[10],294 mmol/kg
same,pH,[10],6.34
same,25HC3S concentration,[11],20.58 mg/mL
same,% Remaining of 25HC3S,[11],72.3%
same,Osmolality,[11],300 mmol/kg
same,pH,[11],2.67
same,Osmolality,[12],273 mmol/kg
same,pH,[12],8.09
same,pH,"250 mg/mL HPBCD, 20 mM phosphate, 60°C, 29 days",7.17
same,25HC3S concentration,[13],28.63 mg/mL
same,% Remaining of 25HC3S,[13],100.0%
same,25HC3S concentration,[14],27.03 mg/mL
same,% Remaining of 25HC3S,[14],94.4%
same,Osmolality,[14],325 mmol/kg
same,pH,[14],7.35
same,25HC3S concentration,[15],26.05 mg/mL
same,% Remaining of 25HC3S,[15],91.0%
same,Osmolality,[15],328 mmol/kg
same,pH,[15],7.13
same,25HC3S concentration,[16],24.70 mg/mL
same,% Remaining of 25HC3S,[16],86.3%
same,Osmolality,[16],328 mmol/kg
same,pH,[16],6.80
same,25HC3S concentration,[17],21.00 mg/mL
same,% Remaining of 25HC3S,[17],73.3%
same,Osmolality,[17],354 mmol/kg
same,pH,[17],5.75
same,Osmolality,[18],311 mmol/kg
same,pH,[18],7.81
same,pH,"250 mg/mL HPBCD, 50 mM borate, 60°C, 29 days",9.19
same,25HC3S concentration,[19],28.50 mg/mL
same,% Remaining of 25HC3S,[19],100.0%
same,25HC3S concentration,[20],26.78 mg/mL
same,% Remaining of 25HC3S,[20],94.0%
same,Osmolality,[20],527 mmol/kg
same,pH,[20],9.34
same,25HC3S concentration,[21],25.45 mg/mL
same,% Remaining of 25HC3S,[21],89.3%
same,Osmolality,[21],534 mmol/kg
same,pH,[21],9.28
same,25HC3S concentration,[22],24.05 mg/mL
same,% Remaining of 25HC3S,[22],84.4%
same,Osmolality,[22],535 mmol/kg
same,pH,[22],9.12
same,25HC3S concentration,[23],20.20 mg/mL
same,% Remaining of 25HC3S,[23],70.9%
same,Appearance,[23],brown clear solutions
same,Osmolality,[23],569 mmol/kg
same,pH,[23],8.92
same,Osmolality,[24],524 mmol/kg
same,pH,[24],9.40
same,pH,"250 mg/mL HPBCD, 50 mM phosphate, 60°C, 29 days",7.28
same,25HC3S concentration,[25],28.50 mg/mL
same,% Remaining of 25HC3S,[25],100.0%
same,25HC3S concentration,[26],27.13 mg/mL
same,% Remaining of 25HC3S,[26],95.2%
same,Osmolality,[26],427 mmol/kg
same,pH,[26],7.42
same,25HC3S concentration,[27],25.83 mg/mL
same,% Remaining of 25HC3S,[27],90.6%
same,Osmolality,[27],432 mmol/kg
same,pH,[27],7.29
same,25HC3S concentration,[28],24.65 mg/mL
same,% Remaining of 25HC3S,[28],86.5%
same,Osmolality,[28],423 mmol/kg
same,pH,[28],7.08
same,25HC3S concentration,[29],20.75 mg/mL
same,% Remaining of 25HC3S,[29],72.8%
same,Osmolality,[29],453 mmol/kg
same,pH,[29],6.73
same,Osmolality,[30],415 mmol/kg
same,pH,[30],7.63
same,pH,"250 mg/mL HPBCD, 100 mM phosphate, 60°C, 29 days",7.28
same,25HC3S concentration,[31],28.58 mg/mL
same,% Remaining of 25HC3S,[31],100.0%
same,25HC3S concentration,[32],27.10 mg/mL
same,% Remaining of 25HC3S,[32],94.8%
same,Osmolality,[32],589 mmol/kg
same,pH,[32],7.42
same,25HC3S concentration,[33],25.83 mg/mL
same,% Remaining of 25HC3S,[33],90.4%
same,Osmolality,[33],585 mmol/kg
same,pH,[33],7.33
same,25HC3S concentration,[34],24.65 mg/mL
same,% Remaining of 25HC3S,[34],86.2%
same,Osmolality,[34],589 mmol/kg
same,pH,[34],7.15
same,25HC3S concentration,[35],21.05 mg/mL
same,% Remaining of 25HC3S,[35],73.7%
same,Appearance,[35],brown clear solution
same,Osmolality,[35],616 mmol/kg
same,pH,[35],6.93
same,Osmolality,[36],573 mmol/kg
same,pH,[36],7.53
same,Appearance,"250 mg/mL HPBCD, 10, 20 and 50 mM phosphate, 80°C, up to 7 days",colorless clear solutions
same,appearance when removed from 80°C oven and cooled to room temperature,"10 or 50 mM borate formulations, 80°C up to 7 days",a white precipitate was observed
same,25HC3S,"60° C., day 0, Borate 10 mM",28.58 mg/mL
same,% Peak Area 25-Hydroxy Cholesterol at RRT = 3.67,"60° C., day 0, Borate 10 mM",0.0 % Peak Area
same,% Peak Area 25HC3S,"60° C., day 0, Borate 10 mM",99.7 % Peak Area
same,% Peak Area Major Thermal Degradant at RRT = 2.64,"60° C., day 0, Borate 10 mM",0.3 % Peak Area
same,% Remaining of 25HC3S,"60° C., day 0, Borate 10 mM",100.0%
same,Osmolality,"60° C., day 0, Borate 10 mM",316 mmol/kg
same,pH,"60° C., day 0, Borate 10 mM",9.36
same,25HC3S,"60° C., day 0, Borate 50 mM",28.50 mg/mL
same,% Peak Area 25-Hydroxy Cholesterol at RRT = 3.67,"60° C., day 0, Borate 50 mM",0.0 % Peak Area
same,% Peak Area 25HC3S,"60° C., day 0, Borate 50 mM",99.9 % Peak Area
same,% Peak Area Major Thermal Degradant at RRT = 2.64,"60° C., day 0, Borate 50 mM",0.2 % Peak Area
same,% Remaining of 25HC3S,"60° C., day 0, Borate 50 mM",100.0%
same,Osmolality,"60° C., day 0, Borate 50 mM",524 mmol/kg
